Assay results reported in publication PMC12196264, “Design and Synthesis of Pyridine-Based Pyrrolo[2,3-d]pyrimidine Analogs as CSF1R Inhibitors: Molecular Hybridization and Scaffold Hopping Approach” (Pharmaceuticals, 2025).
Values after ≈ are worked out from the molar mass of the structure shown.

Key:
[1] = target: cKIT (Homo sapiens, UniProt P10721); experiment: KIT-WT LanthaScreen binding assay (Kd); details: single eight-point titrations, TR-FRET LanthaScreen Binding Assay; R^2 of fit in parentheses; read-out: Enzymatic Assay KIT (Kd)
Experimental: The TR-FRET-based LanthaScreen Binding Assay was performed to determine Kd values of synthesized derivatives against cKIT.
Subsequently, 8 µL of kinase anti-GST antibody mixture was added, followed by incubation at 4 °C for 30 min in a pre-cooled, humidified box to minimize edge effects. The reaction was initiated by adding 5 µL of tracer working solution and mixed on a Bioshake 5000 microplate shaker (Q Instruments, Jena, Germany). […] Kd values were calculated from sigmoidal dose-response curves using Scigilian Analyze software version 5.8.5.15 (Scigilian, Montreal, QC, Canada).

[2] = tested on: Ba/F3 cells engineered to be dependent on CSF1R; experiment: Cell viability assay with Ba/F3-hCSF1R cells; type: cell-based
Experimental: (§1) Given the promising enzymatic activity of the synthesized derivatives, cellular assays were performed using Ba/F3 cells engineered to depend on constitutively active CSF1R. […] We have also previously observed a low correlation between enzymatic and cellular activities, which may arise from the enzymatic protein construct not accurately mimicking the active conformation of CSF1R in a cellular context.
(§2) Performed as reported previously.

[3] = tested on: Ba/F3 cells engineered to be dependent on CSF1R but added additional IL-3; experiment: Cell viability assay with Ba/F3-hCSF1R cells with added IL-3; type: cell-based; details: Mus musculus, BaF3; Ba/F3 CSF1R cells with additional IL-3; read-out: Cellular Assay IC50 (μM), Ba/F3 IL-3
Experimental: as §1, §2

[4] = Kinetic solubility; type: physicochemical; details: aqueous buffer, kinetic from dmso stock; spectrophotometric, pH 7.4 in HEPES buffer
Experimental: (§3) The aqueous solubility of the compounds and metabolic stability under oxidative conditions was performed as described previously.

[5] = Microsomal stability, human liver microsomes; type: in vitro ADME; details: human liver microsome
Experimental: as §3

[6] = MDCK permeability assay; type: in vitro ADME, canine; details: dog, MDCK monolayer
Experimental: Six selected compounds were assessed for metabolic stability (clearance) in mouse liver microsomes (MLM) and human liver microsomes (HLM), and apparent permeability (Papp) using a MDCK permeability assay. […] Although currently limited by solubility and permeability, its metabolic profile provides a starting point for targeted structural modifications aimed at overcoming these challenges.

[7] = target: ABL2 (Homo sapiens, UniProt P42684); experiment: Kinase panel; type: biochemical
Experimental: (§4) Ta b l e S 1. Inhibition (%) by compound 14c towards di7erent kinases. Values are average of two
(§5) measurements at 1000 nM test concentration. The ATP concentration was equal to KM.
(§6) Kinase ATP conc. % inhibition

[8] = target: Aurora B (Homo sapiens, UniProt Q96GD4); experiment: Kinase panel; type: biochemical
Experimental: as §4, §5, §6

[9] = target: BLK (Homo sapiens, UniProt P51451); experiment: Kinase panel; type: biochemical
Experimental: as §4, §5, §6

[10] = target: CLK1 (Homo sapiens, UniProt P49759); experiment: Kinase panel; type: biochemical
Experimental: as §4, §5, §6

[11] = target: DYRK1A (Homo sapiens, UniProt Q13627); experiment: Kinase panel; type: biochemical
Experimental: as §4, §5, §6

[12] = target: EGFR (Homo sapiens, UniProt P00533); experiment: Kinase panel; type: biochemical
Experimental: as §4, §5, §6

[13] = target: ERBB4 (Homo sapiens, UniProt Q15303); experiment: Kinase panel; type: biochemical
Experimental: as §4, §5, §6

[14] = target: FLT1 (Homo sapiens, UniProt P17948); experiment: Kinase panel; type: biochemical
Experimental: as §4, §5, §6

[15] = target: FLT3 (Homo sapiens, UniProt P36888); experiment: Kinase panel; type: biochemical
Experimental: as §4, §5, §6

[16] = target: GSK3B (Homo sapiens, UniProt P49841); experiment: Kinase panel; type: biochemical
Experimental: as §4, §5, §6

[17] = target: LTK (Homo sapiens, UniProt P29376); experiment: Kinase panel; type: biochemical
Experimental: as §4, §5, §6

[18] = target: RET (Homo sapiens, UniProt P07949); experiment: Kinase panel; type: biochemical
Experimental: as §4, §5, §6

[19] = target: SRC (Homo sapiens, UniProt P12931); experiment: Kinase panel; type: biochemical
Experimental: as §4, §5, §6

Aurora B, sequence (Q96GD4 whole entry): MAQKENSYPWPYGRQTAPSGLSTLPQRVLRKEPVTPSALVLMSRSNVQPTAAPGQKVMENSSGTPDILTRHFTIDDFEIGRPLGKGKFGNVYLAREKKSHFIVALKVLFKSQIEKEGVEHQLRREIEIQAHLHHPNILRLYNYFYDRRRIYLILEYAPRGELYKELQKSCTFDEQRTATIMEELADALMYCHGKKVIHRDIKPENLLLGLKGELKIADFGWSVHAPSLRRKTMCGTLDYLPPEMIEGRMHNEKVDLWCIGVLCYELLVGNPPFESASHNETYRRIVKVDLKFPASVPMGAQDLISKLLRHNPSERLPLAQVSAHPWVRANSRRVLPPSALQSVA
BLK, sequence (P51451 whole entry, species assumed): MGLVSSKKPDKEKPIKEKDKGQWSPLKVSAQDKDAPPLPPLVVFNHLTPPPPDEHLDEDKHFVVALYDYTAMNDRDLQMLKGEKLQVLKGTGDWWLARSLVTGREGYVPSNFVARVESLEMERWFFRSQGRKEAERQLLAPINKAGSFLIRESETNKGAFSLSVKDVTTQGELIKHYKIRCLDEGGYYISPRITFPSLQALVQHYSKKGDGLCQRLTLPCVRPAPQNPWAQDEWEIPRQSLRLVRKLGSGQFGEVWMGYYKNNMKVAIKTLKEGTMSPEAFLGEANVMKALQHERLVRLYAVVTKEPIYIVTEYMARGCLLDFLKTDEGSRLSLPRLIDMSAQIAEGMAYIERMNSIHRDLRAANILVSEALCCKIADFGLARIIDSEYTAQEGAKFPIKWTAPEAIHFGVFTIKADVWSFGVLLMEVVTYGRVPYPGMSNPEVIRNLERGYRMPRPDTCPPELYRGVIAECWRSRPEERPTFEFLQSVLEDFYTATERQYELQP
ABL2, sequence (P42684 whole entry, species assumed): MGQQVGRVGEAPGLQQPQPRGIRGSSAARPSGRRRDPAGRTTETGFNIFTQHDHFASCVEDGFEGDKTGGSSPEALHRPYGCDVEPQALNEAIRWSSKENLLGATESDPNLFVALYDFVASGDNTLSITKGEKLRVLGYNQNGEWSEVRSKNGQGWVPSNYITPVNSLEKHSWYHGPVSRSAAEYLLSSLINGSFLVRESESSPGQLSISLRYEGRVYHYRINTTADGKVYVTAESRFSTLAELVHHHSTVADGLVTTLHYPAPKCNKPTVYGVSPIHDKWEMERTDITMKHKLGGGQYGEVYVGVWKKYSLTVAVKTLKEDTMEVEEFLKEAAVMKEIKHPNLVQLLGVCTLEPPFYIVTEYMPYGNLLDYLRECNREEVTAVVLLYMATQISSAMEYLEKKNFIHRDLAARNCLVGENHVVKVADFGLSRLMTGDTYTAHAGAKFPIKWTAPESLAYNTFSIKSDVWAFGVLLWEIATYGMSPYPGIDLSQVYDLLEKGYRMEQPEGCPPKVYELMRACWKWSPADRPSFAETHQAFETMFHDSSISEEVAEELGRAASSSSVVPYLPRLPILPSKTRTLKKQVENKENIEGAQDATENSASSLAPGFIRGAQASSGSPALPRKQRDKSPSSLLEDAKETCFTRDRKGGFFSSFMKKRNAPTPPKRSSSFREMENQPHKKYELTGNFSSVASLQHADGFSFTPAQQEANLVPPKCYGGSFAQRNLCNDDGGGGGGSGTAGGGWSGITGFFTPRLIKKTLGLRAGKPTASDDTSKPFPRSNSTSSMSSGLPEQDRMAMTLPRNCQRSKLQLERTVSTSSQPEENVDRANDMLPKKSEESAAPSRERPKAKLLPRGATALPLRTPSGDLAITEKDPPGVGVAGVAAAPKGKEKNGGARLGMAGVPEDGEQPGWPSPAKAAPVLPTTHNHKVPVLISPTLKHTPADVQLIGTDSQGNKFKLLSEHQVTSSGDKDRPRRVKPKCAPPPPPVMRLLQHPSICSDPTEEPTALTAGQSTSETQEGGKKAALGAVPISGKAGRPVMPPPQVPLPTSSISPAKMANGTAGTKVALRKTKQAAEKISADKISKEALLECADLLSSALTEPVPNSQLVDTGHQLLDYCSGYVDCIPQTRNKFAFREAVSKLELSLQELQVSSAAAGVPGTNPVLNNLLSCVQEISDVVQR
FLT3, sequence (P36888 27-993, species assumed): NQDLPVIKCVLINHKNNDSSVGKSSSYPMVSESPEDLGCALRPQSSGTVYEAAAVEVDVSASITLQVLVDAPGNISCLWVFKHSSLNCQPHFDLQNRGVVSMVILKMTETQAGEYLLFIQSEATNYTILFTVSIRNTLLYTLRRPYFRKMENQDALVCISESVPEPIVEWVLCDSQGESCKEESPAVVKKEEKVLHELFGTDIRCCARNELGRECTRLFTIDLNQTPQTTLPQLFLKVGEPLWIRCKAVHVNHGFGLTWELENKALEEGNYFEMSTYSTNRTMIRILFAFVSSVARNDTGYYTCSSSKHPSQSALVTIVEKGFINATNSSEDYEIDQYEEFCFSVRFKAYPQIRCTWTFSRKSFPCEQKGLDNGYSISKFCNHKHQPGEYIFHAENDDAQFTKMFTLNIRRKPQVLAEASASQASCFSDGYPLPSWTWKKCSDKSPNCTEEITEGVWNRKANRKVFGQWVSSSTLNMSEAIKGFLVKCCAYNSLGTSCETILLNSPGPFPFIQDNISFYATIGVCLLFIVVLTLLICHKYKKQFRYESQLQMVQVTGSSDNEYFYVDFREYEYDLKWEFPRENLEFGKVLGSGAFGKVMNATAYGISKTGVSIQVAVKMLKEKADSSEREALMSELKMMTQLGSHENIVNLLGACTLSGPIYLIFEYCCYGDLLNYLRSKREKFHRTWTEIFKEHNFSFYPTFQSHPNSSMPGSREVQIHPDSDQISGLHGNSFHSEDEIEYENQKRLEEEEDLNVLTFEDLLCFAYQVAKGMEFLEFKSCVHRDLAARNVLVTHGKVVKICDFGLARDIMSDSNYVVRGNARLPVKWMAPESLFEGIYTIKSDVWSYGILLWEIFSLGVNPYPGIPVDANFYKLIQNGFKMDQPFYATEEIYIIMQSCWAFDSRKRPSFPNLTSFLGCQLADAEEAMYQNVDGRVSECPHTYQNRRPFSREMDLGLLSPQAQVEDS
FLT1, sequence (P17948 27-1338, species assumed): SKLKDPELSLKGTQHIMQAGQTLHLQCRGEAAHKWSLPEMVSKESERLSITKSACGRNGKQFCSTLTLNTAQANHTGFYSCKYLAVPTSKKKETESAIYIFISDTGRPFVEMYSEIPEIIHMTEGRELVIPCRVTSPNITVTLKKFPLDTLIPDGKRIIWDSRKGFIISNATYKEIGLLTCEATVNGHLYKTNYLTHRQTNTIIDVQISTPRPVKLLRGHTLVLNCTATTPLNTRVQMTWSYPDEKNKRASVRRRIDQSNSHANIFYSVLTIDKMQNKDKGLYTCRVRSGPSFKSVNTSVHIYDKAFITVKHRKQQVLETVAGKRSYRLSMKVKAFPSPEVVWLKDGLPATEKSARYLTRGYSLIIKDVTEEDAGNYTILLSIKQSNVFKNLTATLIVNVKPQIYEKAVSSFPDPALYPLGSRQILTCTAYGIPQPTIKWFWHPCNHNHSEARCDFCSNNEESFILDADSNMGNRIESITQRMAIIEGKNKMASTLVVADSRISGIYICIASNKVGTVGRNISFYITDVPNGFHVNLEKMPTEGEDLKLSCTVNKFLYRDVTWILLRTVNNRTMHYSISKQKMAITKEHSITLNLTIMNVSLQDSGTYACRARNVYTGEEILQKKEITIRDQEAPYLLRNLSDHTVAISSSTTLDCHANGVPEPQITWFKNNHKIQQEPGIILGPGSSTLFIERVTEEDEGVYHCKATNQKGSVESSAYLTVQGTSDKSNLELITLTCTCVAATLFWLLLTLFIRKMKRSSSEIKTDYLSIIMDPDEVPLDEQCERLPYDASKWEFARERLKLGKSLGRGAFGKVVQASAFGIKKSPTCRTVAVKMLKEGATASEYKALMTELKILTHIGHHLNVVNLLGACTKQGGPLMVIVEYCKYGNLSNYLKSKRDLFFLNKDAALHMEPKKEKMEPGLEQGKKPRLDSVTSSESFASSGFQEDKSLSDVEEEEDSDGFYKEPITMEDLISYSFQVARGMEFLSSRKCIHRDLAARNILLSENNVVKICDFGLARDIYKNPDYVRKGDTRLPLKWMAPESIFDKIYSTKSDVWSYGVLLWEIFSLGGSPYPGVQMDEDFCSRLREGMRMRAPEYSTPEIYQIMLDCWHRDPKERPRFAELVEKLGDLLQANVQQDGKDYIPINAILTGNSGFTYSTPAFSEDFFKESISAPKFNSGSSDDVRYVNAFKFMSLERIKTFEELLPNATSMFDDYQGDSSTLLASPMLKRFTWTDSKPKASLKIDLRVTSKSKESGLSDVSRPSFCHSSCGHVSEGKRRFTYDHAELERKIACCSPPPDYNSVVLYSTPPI
SRC, sequence (P12931 whole entry, species assumed): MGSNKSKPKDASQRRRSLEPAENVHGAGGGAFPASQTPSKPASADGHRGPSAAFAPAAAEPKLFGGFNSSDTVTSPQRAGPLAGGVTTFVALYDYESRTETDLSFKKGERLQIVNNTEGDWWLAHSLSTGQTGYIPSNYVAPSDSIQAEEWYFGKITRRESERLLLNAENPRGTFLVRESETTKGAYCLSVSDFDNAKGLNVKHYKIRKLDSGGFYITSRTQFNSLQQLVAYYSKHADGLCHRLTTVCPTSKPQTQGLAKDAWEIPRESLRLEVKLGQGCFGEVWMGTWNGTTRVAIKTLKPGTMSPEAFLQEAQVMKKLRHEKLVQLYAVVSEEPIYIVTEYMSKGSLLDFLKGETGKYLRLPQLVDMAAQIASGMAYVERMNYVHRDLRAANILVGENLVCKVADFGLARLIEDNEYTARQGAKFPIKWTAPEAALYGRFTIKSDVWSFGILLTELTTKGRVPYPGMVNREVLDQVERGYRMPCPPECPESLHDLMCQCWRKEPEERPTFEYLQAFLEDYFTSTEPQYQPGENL

SMILES: Cc1cccc(CN(C)c2ncnc3[nH]c(-c4ccc(NCc5ccc(C(F)(F)F)nc5)nc4)cc23)c1 [Compound 14c, N-Methyl-N-(3-methylbenzyl)-6-(6-(((6-(trifluoromethyl)pyridin-3-yl)methyl)amino)pyridin-3-yl)-7H-pyrrolo[2,3-d]pyrimidin-4-amine]
- Kd [1]: > 1 µM
- Cellular activity in Ba/F3 CSF1R cells (in words) ([2]; Ba/F3 cells dependent on constitutively active CSF1R): completely inactive in cells
- IC50 ([2]; Mus musculus, BaF3, Ba/F3 cells dependent on CSF1R, with standard deviation, read-out: Cellular Assay IC50 (μM), Ba/F3 CSF1R): > 10 µM
- IC50 [3]: > 10 µM
- solubility kinetic [4]: 0.7 µM (≈ 0.352 µg/mL)
- HLM in vitro intrinsic clearing [5]: 77 µL/min/mg
- Papp A→B ([6]; A–B direction): 5.4 ×10⁻⁶ cm/s
- Papp B→A ([6]; B–A direction): 0.8 ×10⁻⁶ cm/s
- efflux ratio ([6]; read-out: MDCK Ratio (Papp B–A/A–B)): 0.14
- inhibition at 1 µM [7]: 75%
- inhibition at 1 µM [8]: 34%
- inhibition at 1 µM [9]: 19%
- inhibition at 1 µM [10]: 3%
- inhibition at 1 µM [11]: 4%
- inhibition at 1 µM [12]: 57%
- inhibition at 1 µM [13]: 2%
- inhibition at 1 µM [14]: 5%
- inhibition at 1 µM [15]: 26%
- inhibition at 1 µM [16]: 11%
- inhibition at 1 µM [17]: 15%
- inhibition at 1 µM [18]: 14%
- inhibition at 1 µM [19]: 43%
